{"source": "paper PMC5519068", "about": "(PLoS ONE, 2017)", "key": {"[1]": {"test_system": "TF-1 cells expressing Flt3-WT", "assay": "Inhibitor sensitivity of TF-1 cell populations, CellTiter-Blue, 72 h", "assay_type": "cell-based", "method": "(§1) Cells were seeded at a density of 100,000 cells per 1.0 ml in 48-well culture plates. Compounds were added to various concentrations while holding the DMSO concentration constant at 0.1%. Cell viability was assessed 72 hours later using the CellTiter-Blue Cell Viability assay (Promega) according to the manufacturer’s protocol and a SpectraMax Multi-Mode Microplate Reader (Molecular Devices). IC50 values were determined by non-linear regression analysis of concentration-response curves using the GraphPad PRISM software package (version 6.0). Apoptosis was determined using the same cell culture conditions and the Apo-ONE Homogeneous Caspase-3/7 Assay (Promega) and the manufacturer’s protocol.\nFor each retroviral transduction, TF-1 cells (1 x 10^6) were suspended in 5 mL of undiluted viral supernatant and plated in one well of a 6-well tissue culture dish. Polybrene (Sigma) was added to a final concentration of 4 μg/mL and the TF-1 cells were centrifuged at 1000 x g for 3 hours to enhance retroviral mediated gene transfer. After centrifugation, the virus was removed and replaced with fresh medium.\n(§2) Raw fluorescence data were corrected for background and then normalized to cultures grown in the presence of the DMSO carrier solvent. Each condition was performed in triplicate, and results are presented as the mean of the normalized values ± the SD. The resulting dose-response curves were fitted by non-linear regression analysis for estimation of the IC50 values (see Table 2). […] Fes and Flt3 kinase proteins were then immunoprecipitated from cell lysates followed by immunoblotting with antibodies to phosphotyrosine (pTyr), the Fes activation loop phosphotyrosine (pY713), as well as the Flt3 and Fes proteins."}, "THP-1 cells": {"test_system": "THP-1 cells", "assay": "Growth inhibition, CellTiter-Blue viability, 72 h", "assay_type": "cell-based", "settings": "Homo sapiens, THP-1 (wild-type Flt3), read-out: Growth Suppression in AML Cell Lines (IC50, nM) THP-1", "method": "as §1\n(§3) Fig 2 Fes tyrosine kinase inhibitors induce growth arrest in Flt3-ITD^+ AML cell lines. A) The Flt3-ITD^+ cell lines MV4-11, MOLM-13, and MOLM-14, along with THP-1 (wild-type FLT3) were incubated with each of the kinase inhibitors shown over a range of concentrations, and cell viability was measured 72 h later using the CellTiter-Blue Assay (see Materials and methods). Raw fluorescence data were corrected for background and then normalized to cultures grown in the presence of the DMSO carrier solvent. Each assay condition was performed in triplicate, and results are presented as the mean of the normalized values ± the SD. The resulting dose-response curves were fitted by non-linear regression analysis, and the resulting IC50 values are shown in Table 1."}, "MOLM-13 cells": {"test_system": "MOLM-13 cells", "assay": "Growth inhibition, CellTiter-Blue viability, 72 h", "assay_type": "cell-based", "settings": "Homo sapiens, MOLM-13 (Flt3-ITD+), read-out: Growth Suppression in AML Cell Lines (IC50, nM) MOLM-13", "method": "as §1, §3"}, "MOLM-14 cells": {"test_system": "MOLM-14 cells", "assay": "Growth inhibition, CellTiter-Blue viability, 72 h", "assay_type": "cell-based", "settings": "Homo sapiens, MOLM-14 (Flt3-ITD+), read-out: Growth Suppression in AML Cell Lines (IC50, nM) MOLM-14", "method": "as §1, §3"}, "MV4-11 cells": {"test_system": "MV4-11 cells", "assay": "Growth inhibition, CellTiter-Blue viability, 72 h", "assay_type": "cell-based", "settings": "Homo sapiens, MV4-11 (Flt3-ITD+), read-out: Growth Suppression in AML Cell Lines (IC50, nM) MV4-11", "method": "as §1, §3"}, "[2]": {"test_system": "Flt3-ITD+ AML cell lines (MV4-11, MOLM-13, MOLM-14)", "assay": "Apoptosis, Apo-ONE Caspase 3/7 assay", "assay_type": "cell-based, human", "settings": "1.0 μM, 72 h", "method": "as §1\nCell viability was measured in parallel using the CellTiter-Blue assay, and the resulting data are presented as the ratio of Caspase activity to cell viability as per the manufacturer’s protocol. All assays were performed in triplicate, and data are presented as the mean ratios ± SD. Asterisks indicate statistical significance between each treatment group vs. the corresponding DMSO control group with p < 0.05 (Student’s t-test)."}, "[3]": {"test_system": "Fes in TF-1/Flt3-ITD cells", "assay": "Immunoprecipitation/immunoblot of Fes pY713 in TF-1/Flt3-ITD cells", "assay_type": "cell-based, human", "settings": "compound at in vitro IC90 for Fes, 16 h (tandutinib: IC90 for Flt3-ITD, 6 h)", "method": "(§4) AML cells (2.5 x 10^6 in 5 mL) were cultured in the presence of kinase inhibitors or DMSO alone for 6 to 16 hours prior to lysis by sonication in RIPA buffer (50 mM Tris-HCl, pH 7.4, 150 mM NaCl, 1 mM EDTA, 1% Triton X-100, 0.1% SDS, 1% sodium deoxycholate) supplemented with 1 mM sodium orthovanadate, 1 mM sodium fluoride, 5 units/ml Benzonase (Novagen), and SigmaFAST EDTA-free protease inhibitor cocktail (Sigma). Flt3 and Fes were immunoprecipitated from 1 mg of cell lysate with 2 μg of antibody and 25 μL of protein G-Sepharose beads (Life Technologies) overnight at 4°C. Immunoprecipitates were washed three times by resuspension in 1.0 ml of RIPA buffer. Immunoprecipitated proteins were separated by SDS-PAGE, transferred to PVDF membranes and probed with the indicated antibodies followed by alkaline phosphatase-linked secondary antibodies. CDP-Star Western Blot Chemiluminescence Reagent (Perkin-Elmer) was used for detection.\nas §2"}, "Flt3-D835Y kinase domain": {"target": "T1, Flt3-D835Y kinase domain (Homo sapiens, UniProt P36888, D835Y)", "T1 construct": "Recombinant Flt3-WT, Flt3-ITD, and Flt3-D835Y kinase domain proteins were purchased from Life Technologies; purchased Life Technologies", "T1 sequence (P36888 610-943 D835Y limits assumed)": "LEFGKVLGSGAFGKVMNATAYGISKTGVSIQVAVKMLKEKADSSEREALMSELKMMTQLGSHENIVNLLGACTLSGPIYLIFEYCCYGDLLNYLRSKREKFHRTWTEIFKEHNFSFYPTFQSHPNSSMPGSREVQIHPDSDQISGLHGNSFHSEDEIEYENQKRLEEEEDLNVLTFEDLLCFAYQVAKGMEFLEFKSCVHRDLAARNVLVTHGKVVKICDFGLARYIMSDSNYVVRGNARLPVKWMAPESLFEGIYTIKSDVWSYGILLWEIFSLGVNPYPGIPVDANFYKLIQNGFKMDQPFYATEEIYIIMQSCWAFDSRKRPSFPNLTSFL", "assay": "In vitro kinase assay (Z'-LYTE)", "assay_type": "biochemical", "settings": "for IC50: ATP at Km", "method": "(§5) Recombinant protein kinase assays were performed using the FRET-based Z’-LYTE Kinase Assay according to the manufacturer’s instructions (Thermo Fisher Scientific). […] The Tyr-2 peptide was used as substrate for all recombinant kinases. Kinases were preincubated with inhibitors for 30 minutes, followed by addition of ATP and peptide substrate for 1 hour. Reactions were quenched by addition of development reagent, followed by incubation for an additional hour prior to fluorescence measurements on a SpectraMax M5 microplate reader. IC50 values were calculated by non-linear regression analysis of the resulting concentration-response curves using GraphPad PRISM."}, "Flt3-ITD kinase domain": {"target": "Flt3-ITD kinase domain (Homo sapiens, UniProt P36888)", "assay": "In vitro kinase assay (Z'-LYTE)", "assay_type": "biochemical", "settings": "ATP at Km", "method": "as §5"}, "[4]": {"test_system": "Flt3-ITD in TF-1/Flt3-ITD cells", "assay": "Immunoprecipitation/immunoblot of Flt3 phosphotyrosine content in TF-1/Flt3-ITD cells", "assay_type": "cell-based, human", "settings": "compound at in vitro IC90 for Fes, 16 h (tandutinib: IC90 for Flt3-ITD, 6 h)", "method": "as §4, §2"}}, "note": "Like-named read-outs stand apart in the source and are kept apart here."}
{"smiles": "CCN1CCN(Cc2ccc(NC(=O)c3ccc(C)c(Oc4ccnc5[nH]ccc45)c3)cc2C(F)(F)F)CC1", "note": "[HG7-92-01]", "values": [{"measurement": "IC50", "setting": "[1]; Homo sapiens, TF-1, 72 h; read-out: Inhibitor sensitivity of TF-1 Cell Populations (IC50, nM) Flt3-WT", "value": "> 1000", "unit": "nM"}, {"measurement": "IC50", "setting": "THP-1 cells", "value": "> 3000", "unit": "nM"}, {"measurement": "IC50", "setting": "MOLM-13 cells", "value": 93, "unit": "nM"}, {"measurement": "IC50", "setting": "MOLM-14 cells", "value": 34, "unit": "nM"}, {"measurement": "IC50", "setting": "MV4-11 cells", "value": 19, "unit": "nM"}, {"measurement": "Apoptosis (Caspase 3/7 activity) in Flt3-ITD+ AML cell lines", "setting": "[2]", "value": "equal to or greater than that observed with tandutinib"}, {"measurement": "Inhibition of Fes activation loop phosphorylation in TF-1/Flt3-ITD cells", "setting": "[3]", "value": "inhibited both Flt3-ITD and Fes"}, {"measurement": "IC50", "setting": "Flt3-D835Y kinase domain", "value": 3650, "unit": "nM"}, {"measurement": "IC50", "setting": "Flt3-ITD kinase domain", "value": 149, "unit": "nM"}, {"measurement": "Inhibition of Flt3-ITD phosphotyrosine content in TF-1/Flt3-ITD cells", "setting": "[4]", "value": "inhibited both Flt3-ITD and Fes"}]}
{"smiles": "COc1cc(N2CCC(O)CC2)ccc1Nc1nc(Nc2ccccc2S(=O)(=O)C(C)C)c2cn[nH]c2n1", "note": "[WZ4-49-1]", "values": [{"measurement": "IC50", "setting": "[1]; Homo sapiens, TF-1, 72 h, read-out: Inhibitor sensitivity of TF-1 Cell Populations (IC50, nM) Flt3-WT", "value": "> 3000", "unit": "nM"}, {"measurement": "IC50", "setting": "THP-1 cells", "value": "> 3000", "unit": "nM"}, {"measurement": "IC50", "setting": "MOLM-13 cells", "value": 884, "unit": "nM"}, {"measurement": "IC50", "setting": "MOLM-14 cells", "value": 994, "unit": "nM"}, {"measurement": "IC50", "setting": "MV4-11 cells", "value": 965, "unit": "nM"}, {"measurement": "Apoptosis (Caspase 3/7 activity) in Flt3-ITD+ AML cell lines", "setting": "[2]", "value": "less pronounced"}, {"measurement": "Inhibition of Fes activation loop phosphorylation in TF-1/Flt3-ITD cells", "setting": "[3]", "value": "only inhibited the activity of Fes"}, {"measurement": "IC50", "setting": "Flt3-D835Y kinase domain", "value": 642, "unit": "nM"}, {"measurement": "Sensitivity of Flt3-D835Y compared to wild-type Flt3 in vitro", "setting": "Flt3-D835Y kinase domain; in vitro kinase assays", "value": "about 5 fold"}, {"measurement": "IC50", "setting": "Flt3-ITD kinase domain", "value": 1390, "unit": "nM"}, {"measurement": "Inhibition of Flt3-ITD phosphotyrosine content in TF-1/Flt3-ITD cells", "setting": "[4]", "value": "only inhibited the activity of Fes"}]}
